Source: patent US20070224267A1, “Ambroxol for the treatment of painful conditions in the mouth and pharyngeal cavity” (priority 2002, published 2007)
Where a name gives a salt, the structure may show the parent alone.

Tests used:
[1] = test system: patients with acute sore throat; assay: Clinical trial of suckable tablets containing 20 mg ambroxol hydrochloride vs placebo in acute sore throat (Example 1); format: in vivo
Experimental: A multi-centred, prospective, placebo-controlled, randomised double-blind trial was carried out over two days' treatment with up to 6 suckable tablets containing ambroxol hydrochloride per day. Patients: 218 patients (97 men, 121 women) with an average age of 39.4±15 years (range from 17-81 years) were recruited; of these 215 patients were treated: 107 with 20 mg of ambroxol and 108 with placebo. 26 patients stopped the treatment early (13 in each treatment group). The intent-to-treat (ITT) population consisted of 208 patients (105 treated with ambroxol and 103 given the placebo); 196 patients formed the per-protocol (PP) population (97 with test substance and 99 with placebo). For the drug safety analysis, all the patients treated were studied. Treatments: Double-blind treatment with up to 6 suckable tablets per day, which either contained 20 mg of ambroxol or constituted a placebo (suckable tablet without the active substance, but with a marked flavour of peppermint similar to the test substance). End points: The average pain reduction, weighted for time, during the first 3 hours after administration of the first suckable tablet, standardised to the degree of initial pain (SPIDnorm); moreover, the assessment of effectiveness and tolerance by the patient at the end of each day of treatment.

[2] = test system: patients with acute sore throat; assay: Clinical trial of suckable tablets containing 20 or 30 mg ambroxol hydrochloride vs placebo in acute sore throat (Example 2); format: in vivo; settings: for average SPIDnorm (±SD) after the first suckable tablet: time-weighted average pain reduction in first 3 hours, standardised to initial pain, placebo 0.38±0.28
Experimental: A multi-centred, prospective, placebo-controlled, randomised double-blind trial was carried out over three days' treatment with up to 6 suckable tablets containing ambroxol hydrochloride per day. Patients: 331 ambulant patients with acute uncomplicated sore throats of at least moderate severity but with no bacterial pharyngitis were investigated. Treatments: Double-blind treatment with up to 6 suckable tablets per day containing either 20 mg or 30 mg of ambroxol hydrochloride or constituting a placebo (suckable tablet without the active substance, but again with a marked flavour of peppermint similar to the test substance). End points: The average pain reduction, weighted for time, during the first 3 hours after administration of the first suckable tablet, standardised to the degree of initial pain (SPIDnorm); moreover, the assessment of effectiveness and tolerance by the patient at the end of each day of treatment.

[3] = up to 6 suckable tablets of 20 mg per day, two days, vs placebo

## Nc1c(Br)cc(Br)cc1CN[C@H]1CC[C@H](O)CC1 [ambroxol hydrochloride, trans-4-[(2-amino-3,5-dibromobenzyl)amino]cyclohexano hydrochloride]
[1]; 20 mg suckable tablet, time-weighted average pain reduction in first 3 hours, standardised to initial pain, placebo 0.28±0.25
  average SPIDnorm (±SD) after the first suckable tablet: 0.39±0.27
[1]; [3]
  assessment of effectiveness by the patient at the end of each day of treatment: statistically significantly larger number of patients reported a higher degree of effectiveness
  tolerance: tolerated just as well as the placebo
[2]; 20 mg suckable tablet
  average SPIDnorm (±SD) after the first suckable tablet: 0.53±0.28
[2]; 30 mg suckable tablet
  average SPIDnorm (±SD) after the first suckable tablet: 0.50±0.30
[2]; up to 6 suckable tablets of 20 or 30 mg per day, three days, vs placebo
  assessment of effectiveness by the patient at the end of each day of treatment: statistically significantly larger number of patients reported a higher degree of effectiveness
[2]; up to 6 suckable tablets per day, three days, all dosages (20 and 30 mg), vs placebo
  tolerance: tolerated just as well as the placebo
